Assay results taken from ChEMBL document CHEMBL1201862, “PubChem BioAssay data set” (2004).
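Following 48 hours of exposure in 96-well plates, responses at five concentrations were used to interpolate endpoints linearly. At the GI50, growth is halved.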 Activity calls are given as the source filed them. Cut-off read from the data, not from the text of the source: active = GI50 up to about 1.1 µM and inactive = higher.

Key:
Assay in all cases: growth of human tumour cells (NCI), 48 h
A498 = tested on: A498
A549 = tested on: A549
DU-145 = tested on: DU-145
HL-60 = tested on: HL-60
HT-29 = tested on: HT-29
Hs-578T = tested on: Hs-578T
NCI-H460 = tested on: NCI-H460
OVCAR-3 = tested on: OVCAR-3
RXF 393 = tested on: RXF 393
SF-268 = tested on: SF-268
SF-295 = tested on: SF-295
SK-MEL-28 = tested on: SK-MEL-28
SK-MEL-2 = tested on: SK-MEL-2
SN12C = tested on: SN12C
SNB-75 = tested on: SNB-75
SR = tested on: SR
SW-620 = tested on: SW-620
TK-10 = tested on: TK-10
UACC-257 = tested on: UACC-257
UO-31 = tested on: UO-31

Measured: GI50

COc1cccc2c(=O)c3c(n(C)c12)OC(C(C)C)C3 (stereo not given)
inactive: A498 > 100 µM | A549 > 100 µM | DU-145 > 100 µM | HL-60 69.7 µM | HT-29 > 100 µM | Hs-578T > 100 µM | NCI-H460 52.1 µM | OVCAR-3 > 100 µM | RXF 393 > 100 µM | SF-268 > 100 µM | SF-295 > 100 µM | SK-MEL-28 > 100 µM | SK-MEL-2 > 100 µM | SN12C > 100 µM | SNB-75 > 100 µM | SR 30.8 µM | SW-620 > 100 µM | TK-10 > 100 µM | UACC-257 > 100 µM | UO-31 40.7 µM

C=CC(COC(=O)C(C)(C)OC(C)=O)c1ccc(OC(=O)C(C)C)c(OC)c1 (stereo not given)
inactive: A498 17.2 µM | A549 19.8 µM | DU-145 11.2 µM | HL-60 4.6 µM | HT-29 3.27 µM | Hs-578T 7.46 µM | NCI-H460 2.62 µM | OVCAR-3 4.76 µM | RXF 393 6.07 µM | SF-268 5.2 µM | SF-295 4.23 µM | SK-MEL-28 5.19 µM | SK-MEL-2 9.62 µM | SN12C 3.34 µM | SNB-75 7.16 µM | SR 2.56 µM | SW-620 4.84 µM | TK-10 8.57 µM | UACC-257 14.6 µM | UO-31 7.69 µM

C[C@]12CC[C@@H]3c4cc(C=O)c(OCc5ccccc5)cc4CC[C@H]3[C@@H]1CCC2OCc1ccccc1 (stereo not given in full)
inactive: A498 > 100 µM | A549 60.7 µM | DU-145 > 100 µM | HL-60 > 100 µM | HT-29 > 100 µM | Hs-578T > 100 µM | NCI-H460 > 100 µM | OVCAR-3 > 100 µM | RXF 393 > 100 µM | SF-268 > 100 µM | SF-295 > 100 µM | SK-MEL-28 > 100 µM | SK-MEL-2 > 100 µM | SN12C > 100 µM | SNB-75 > 100 µM | SR 73.1 µM | SW-620 > 100 µM | TK-10 > 100 µM | UACC-257 58.9 µM | UO-31 > 100 µM
